US20240390295A1, “METHODS FOR TREATING DEPRESSION” (JANSSEN PHARMACEUTICA NV, priority 2020, published 2024)

Legend:
[1] = system: adult patients (aged 18-64 years) with TRD; assay: MOAA/S-defined sedation (score <5); assay type: in vivo, human
Protocol: For measuring treatment session induced sedation, one of skill in the art may use the Modified Observer's Assessment of Alertness/Sedation Scale (MOAA/S). […] For subjects with a score of 4, the assessment should be repeated every 15 minutes. And for subjects with a score of ≤3, the assessment should be repeated every 5 minutes until the score. In some embodiments, the results of the MOAA/S may be correlated to levels of sedation defined by the American Society of Anesthesiologists (ASA) continuum.
Vital signs, the Clinician-Administered Dissociative States Scale (CADSS), and the Modified Observer's Assessment of Alertness/Sedation (MOAA/S) were assessed at baseline and all treatment sessions (predose, and at 40 minutes, 1 hour [vital signs only unless spontaneously reported by the patient], and 1.5 hours postdose). Routine blood pressure (BP) readings were conducted at each treatment session, with elevations reported as AEs based on the clinician's judgement. The CADSS assessed treatment-emergent dissociative symptoms and consists of 23 questions, each coded on a 5-point scale (0=not at all, 1-mild, 2-moderate, 3=severe, 4-extreme), yielding a total score 0-92.11 A CADSS total score >4 indicated the presence of dissociative symptoms. The MOAA/S assessed treatment-emergent sedation: scores range from (=no response to painful stimulus to 5=readily responds to name spoken in normal tone. Any decrease in MOAA/s from pre-dose (score <5) indicated some degree of sedation. An abnormal elevation in BP was defined as systolic BP ≥180 mmHg and ≥20 mmHg higher than baseline and/or diastolic BP ≥105 mmHg and ≥15 mmHg greater than baseline.
(§1) This analysis included any treatment sessions in which patients received ESK (either open-label or blinded). The occurrence and severity of AEs were assessed within the following timeframes: Month 1 (Week 1 and Weeks 2-4), Month 2 (Weeks 5-8), Months 3-6 and Months 6-12. Severity of clinician-reported AEs were scored as 0 (no AE), 1 (mild), 2 (moderate), and 3 (severe). To examine AEs in individual patients over time, only patients who received at least one ESK dose in the following period were included in the analyses of each respective period. Thus, patient data were retained in (i) Week 1 if the patient received ≥1 ESK dose in Weeks 2-4, (ii) Weeks 2-4 if the patient received ≥1 ESK dose in Weeks 5-8, (iii) Weeks 5-8 if the patient received ≥1 ESK dose in Months 3-6, and (iv) Months 3-6 if the patient received ≥1 ESK dose in Months 6-12.

[2] = system: adult patients (aged 18-64 years) with TRD; assay: Severity of recurrent clinician-reported AEs (0 no AE, 1 mild, 2 moderate, 3 severe); assay type: in vivo, human
Protocol: Patients were monitored for >90 minutes after ESK administration at each treatment session, after which time they could leave the clinical site at the clinician's discretion. AEs were monitored and reported, and safety assessments, including clinical laboratory tests and physical examinations, were conducted throughout the study. Clinician-reported AEs were categorized as mild, moderate, or severe based on clinical judgement (Table 1).
as §1
Week 1 and Week 4 were set a priori as index weeks because they are the beginning and end of the induction period. Frequencies and maximum-reported severities of AEs reported during these index weeks served as stratifying variables by which to examine recurrence and severities of AE recurrences in future timeframes.

`CN[C@]1(c2ccccc2Cl)CCCCC1=O` [esketamine, (S)-2-(2-chlorophenyl)-2-(methylamino)cyclohexanone] showed an MOAA/S-defined sedation ([1]; Months 3-6, AE once in Week 1) of 47.7%, an MOAA/S-defined sedation ([1]; Months 3-6, AE twice in Week 1) of 74.5% and an MOAA/S-defined sedation ([1]; Months 3-6, No AE in Week 1) of 23.8%. For the same compound, the MOAA/S-defined sedation ([1]; Months 3-6, overall rate for timeframe) was 37.5%, the MOAA/S-defined sedation ([1]; Months 6-12, AE once in Week 1) was 38.3% and the MOAA/S-defined sedation ([1]; Months 6-12, AE twice in Week 1) was 51.8%. For the same compound, the MOAA/S-defined sedation ([1]; Months 6-12, No AE in Week 1) was 18.8%, the MOAA/S-defined sedation ([1]; Months 6-12, overall rate for timeframe) was 28.4% and the MOAA/S-defined sedation ([1]; Week 1, overall rate for timeframe) was 38.1%. The MOAA/S-defined sedation ([1]; Weeks 2-4, AE once in Week 1) was 65.7%, the MOAA/S-defined sedation ([1]; Weeks 2-4, AE twice in Week 1) was 95.4% and the MOAA/S-defined sedation ([1]; Weeks 2-4, No AE in Week 1) was 22.0%. The MOAA/S-defined sedation ([1]; Weeks 2-4, overall rate for timeframe) was 44.2%, the MOAA/S-defined sedation ([1]; Weeks 5-8, AE once in Week 1) was 42.0% and the MOAA/S-defined sedation ([1]; Weeks 5-8, AE twice in Week 1) was 81.4%. For the same compound, the MOAA/S-defined sedation ([1]; Weeks 5-8, No AE in Week 1) was 15.8%, the MOAA/S-defined sedation ([1]; Weeks 5-8, overall rate for timeframe) was 33.1% and the “MOAA/S mean recurrence scores” value ([1]; after Week 1 or Week 4, regardless of highest MOAA/S) was 3.5-4.0. For the same compound, the “MOAA/S mean recurrence score, single patient exception” value ([1]; human, in vivo, other: intranasal) was 3.25, the “measure-based sedation not reported during Week 1, patients” value ([1]; human, in vivo, other: intranasal, 1 week) was 62% and the “clinician-reported dissociation mean recurrence severity score” value ([2]; AE moderate in Week 1, Months 3-6) was 1.4. The “clinician-reported dissociation mean recurrence severity score” value ([2]; AE moderate in Week 1, Months 6-12) was 1.5, the “clinician-reported dissociation mean recurrence severity score” value ([2]; AE moderate in Week 1, Weeks 2-4) was 1.5 and the “clinician-reported dissociation mean recurrence severity score” value ([2]; AE moderate in Week 1, Weeks 5-8) was 1.3. For the same compound, the “clinician-reported dissociation mean recurrence severity score” value ([2]; AE severe in Week 1, Months 3-6) was 1.2, the “clinician-reported dissociation mean recurrence severity score” value ([2]; AE severe in Week 1, Months 6-12) was 1.6 and the “clinician-reported dissociation mean recurrence severity score” value ([2]; AE severe in Week 1, Weeks 2-4) was 1.5. For the same compound, the “clinician-reported dissociation mean recurrence severity score” value ([2]; AE severe in Week 1, Weeks 5-8) was 1.8, the “patients with a severe recurrence” value ([2]; all clinician-reported AEs except dissociation, any observation period following Week 1 or 4) was less than 5 patients and the “patients with a moderate recurrence” value ([2]; clinician-reported AEs except dissociation, dizziness, vertigo and nausea, any observation period) was less than 10 patients. The “reported severity of dissociation, dizziness, nausea, sedation, vertigo, increased blood pressure” value ([2]; initial incidence and recurrence) was “mostly mild and rarely severe”, the “clinician-reported dissociation mean recurrence severity score” value ([2]; no dissociation in Week 1, all timeframes) was 1.3 and the severity of recurrences ([2]; regardless of highest severity in Weeks 1 or 4) was “mild to moderate”.
